Test results as given in patent USRE38257E1, “Piperdine derivatives and hypotensives containing the same” (Ajinomoto Co., Inc., priority 1988, dated 2003).

System: male spontaneously hypertensive rats
Experiment: Decrease in systolic blood pressure in spontaneously hypertensive rats after intravenous bolus injection, indirect (tail-cuff) method
Assay type: in vivo, rat
Conditions: for Decrease in systolic blood pressure (mmHg) time after administration (hour) 0.5: 0.5 hour after administration; for Decrease in systolic blood pressure (mmHg) time after administration (hour) 4: 4 hours after administration
Protocol: As test animals, four male spontaneously hypertensive rats (weight 400 to 440 g) that were sufficiently adapted for feeding and in which hypertension was confirmed were used.
Physiological saline aqueous solution containing 2.5% Nicolle and 2.5% ethanol of sample was intravenously administered by bolus injection at a dose of 1 ml per 1 kg of body weight. Systolic blood pressure after administration was measured by the indirect (tail-cuff) method.

Row | Structure (SMILES) | Decrease in systolic blood pressure (mmHg) time after administration (hour) 0.5 (dose 10 mg/kg i.v. bolus) [mmHg] | Decrease in systolic blood pressure (mmHg) time after administration (hour) 4 (dose 10 mg/kg i.v. bolus) [mmHg] | Decrease in systolic blood pressure (mmHg) time after administration (hour) 0.5 (dose 3 mg/kg i.v. bolus) [mmHg] | Decrease in systolic blood pressure (mmHg) time after administration (hour) 4 (dose 3 mg/kg i.v. bolus) [mmHg]
1 | CCC(=O)Nc1ccc(C=CCN2CCC(=C3c4ccccc4C=Cc4ccccc43)CC2)cc1.Cl [Example 370, 4-(5H-Dibenzo[a,d]cyclohepten-5-ylidene)-1-(4-propanoylaminocinnamyl)piperidine hydrochloride] | −99 | −69 |  | 
2 | Cc1ccc(C(=O)CCCN2CCC(=C3c4ccccc4C=Cc4ccccc43)CC2)cc1C.Cl [Example 198] | −124 | −25 |  | 
3 | Cl.Clc1ccc(CN2CCC(=C3c4ccccc4C=Cc4ccccc43)CC2)cc1 [Example 130, 1-(4-Chlorobenzyl)-4-(5H-Dibenzo[a,d]cyclohepten-5-ylidene)piperidine hydrochloride] | −42 | 9 |  | 
4 | Cl.O=C(CCCN1CCC(=C2c3ccccc3C=Cc3ccccc32)CC1)c1cccs1 [Example 234, 4-(4-(5H-Dibenzo[a,d]cyclohepten-5-ylidene)-1-piperidinyl)-1-(2-thienyl)-1-butanone hydrochloride] | −96 | −2 |  | 
5 | COc1cccc(C=CCN2CCC(=C3c4ccccc4C=Cc4ccccc43)CC2)c1OC.Cl [Example 193, 4-(5H-Dibenzo[a,d]cyclohepten-5-ylidene)-1-(2-dimethoxycinnamyl)piperidine hydrochloride] | −124 | −59 |  | 
6 | COc1ccc(OC)c(C=CCN2CCC(=C3c4ccccc4C=Cc4ccccc43)CC2)c1.Cl [Example 343, 4-(5H-Dibenzo[a,d]cyclohepten-5-ylidene)-1-(2,5-dimethoxycinnamyl)piperidine hydrochloride] |  |  | −83 | −45
7 | Cl.Oc1ccc(C=CCN2CCC(=C3c4ccccc4C=Cc4ccccc43)CC2)cc1 [Example 363, 4-(5H-Dibenzo[a,d]cyclohepten-5-ylidene)-1-(4-hydroxycinnamyl)piperidine hydrochloride] |  |  | −120 | 
8 | COc1cc(C=CCN2CCC(=C3c4ccccc4C=Cc4ccccc43)CC2)ccc1[N+](=O)[O-].Cl [Example 387, 4-(5H-Dibenzo[a,d]cyclohepten-5-ylidene)-1-(3-methoxy-4-nitrocinnamyl)piperidine hydrochloride] | −112 | −50 |  | 
9 | COc1ccc(C(O)CCCN2CCC(=C3c4ccccc4C=Cc4ccccc43)CC2)cc1OC.Cl (stereo not shown) [Example 205, 4-(4-(5H-Dibenzo[a,d]cyclohepten-5-ylidene)-1-piperidinyl)-1-(3,4-dimethoxy)phenyl-1-hydroxybutane hydrochloride] | −22 | −4 |  | 
10 | CC(=O)N1CCCCC1CCCN1CCC(=C2c3ccccc3C=Cc3ccccc32)CC1.Cl (stereo not shown) [Example 294, 1-(N-Acetyl-2-piperidinyl)-3-(4-(5H-Dibenzo[a,d]cyclohepten-5-ylidene)-1-piperidinyl)propane hydrochloride] |  |  | −17 | 7
